We go through 62 compounds from a melting point compilation (Tetko et al.; mined from patent text by program, amines drawn as free bases though some values may be those of a salt).

By melting point is commonly meant the temperature of the solid-liquid transition.

`CCOC(=O)Cn1nc2ccc(NCCCN3CCC(OC(c4ccccc4)c4ccccc4)CC3)nn2c1=O` yielded a melting point of 137 to 139 °C.

The compound `CC(C)(C)c1cc(OCC(=O)OCCN2C(C)(C)CC(OC(=O)COc3ccc(O)c(C(C)(C)C)c3)CC2(C)C)ccc1O` registered a melting point of 74 to 77 °C.

Take `NCc1ccccc1NC1CCN(Cc2ccccc2)CC1`: the melting point was in the range of 117 to 118 °C.

In turn, `CCC(C(C)=CC(CNC(=O)c1cccnc1F)=NO)[N+](=O)[O-]` (configuration not stated) yielded a melting point of 91 to 92 °C.

The compound `COc1cc2c(c(Cl)c1Cl)C(=O)C(CCCl)=C2` returned a melting point of 103 to 105 °C.

With `COc1ccc(CCN(C)CCOc2ccc(NC(=O)c3cccc4c(=O)c5ccccc5n(C)c34)cc2)cc1OC`, the melting point was found to be 139 °C.

With `CCCCCCCCCNC(C)C(=O)O` (configuration not stated), the melting point is 264 °C.

In turn, `COc1cccc(Nc2nc(-c3ccccc3)c(C(=O)c3sc(Nc4cccc(OC)c4)nc3-c3ccccc3)s2)c1` had a melting point above 285 °C.

Take `O=C(Oc1cc([N+](=O)[O-])cc([N+](=O)[O-])c1O)c1ccccc1`: the melting point was 150 to 152 °C.

`NS(=O)(=O)c1ccc(NC(=O)CCl)c(F)c1` showed a melting point of 185 to 187 °C.

In turn, `CCOC(=O)Nc1cc(N2CCN(c3ccc([N+](=O)[O-])cc3)CC2)ccn1` yielded a melting point of 243 to 245 °C.

Compound `ClCc1ccc(-c2nnc3n2-c2cccnc2Nc2ccccc2-3)cc1` came in with a melting point of 260 to 262 °C.

Take `CC(C)Cc1ccc(-c2ncccc2S(=O)(=O)Oc2ccc([N+](=O)[O-])cc2)cc1`: the melting point lay in the range of 123 to 124 °C.

For the compound `O=C(OCC1CC1)c1ncn2c1[C@@H]1CCN1C(=O)c1c(Br)cccc1-2`, the melting point fell in the range of 212 to 213 °C.

For `CCOc1nn(-c2ccc(C(F)(F)F)cn2)cc1CCOc1cc(CC(=O)O)n(C)n1`, the melting point is 156 to 158 °C.

The compound `Cc1nc(Cl)cc(C2(c3ccc(Cl)cc3)CCC2)n1` registered a melting point of 96 to 98 °C.

Consider `CS(=O)C1C=Nc2cc(F)ccc2C1=O` (configuration not stated), for which the melting point turned out to be 265 °C.

As to `N#Cc1ccc(/C=C/C=C/C=O)cc1`, the melting point was 147 to 150 °C.

The compound `CNS(=O)(=O)c1ccc(-c2cnc3[nH]c(CCc4cc(OC)ccn4)nc3c2)cc1` returned a melting point of 225 to 227 °C.

`CC(C)c1ccc(SCc2c(C(C)C)nc(C(C)C)c(CO)c2-c2ccc(F)cc2)cc1` displayed a melting point of 108 to 109 °C.

As to `CCCCCCCCCc1nnc(C2=C(OC(C)=O)c3ccccc3S(=O)(=O)N2C)o1`, the melting point lay within 118 to 119 °C.

`CCOC(=O)Cc1c(C(=O)O)c(C)cn1C` came in with a melting point of 182 to 185 °C.

Regarding `COc1cc(-c2cccs2)ccc1C(=O)C=Cc1ccc(F)c(F)c1`, the melting point was in the range of 73 to 79 °C.

Consider `COC(=O)CCn1c(=O)n2n(c1=O)C(C(=O)OC(C)(C)C)C=CC2` (configuration not stated), for which the melting point lay in the range of 77 to 78 °C.

Take `COc1ccccc1OCCCCCOc1ccc(C#N)cc1`: the melting point lay within 61 to 63 °C.

Regarding `COc1ccc(COc2c(C)c(C)c3c(c2C)C(c2ccc(N4CCOCC4)cc2)C(C)(C)O3)cc1` (configuration not stated), the melting point was in the range of 110 to 112 °C.

The compound `O=C1OCC(c2ccc([N+](=O)[O-])cc2)C1CSCc1ccccc1` (configuration not stated) gave a melting point of 90 to 91 °C.

In turn, `CONC1=NS(=O)(=O)c2cc(Cl)ccc2N1` gave a melting point above 220 °C.

`Cc1ccccc1CC(=NC#N)NC(NC(=O)Cc1ccc(F)c(F)c1)C(C)(C)C` (configuration not stated): the melting point fell in the range of 178 to 179 °C.

The compound `CCCc1c(OCC(O)COc2cccc(NC(=O)C(=O)OCC)c2C#N)ccc(C(C)=O)c1O` (configuration not stated) returned a melting point of 172 to 174 °C.

`O=C(CCc1ccccc1)N[C@H](Cc1ccc(C(F)(F)F)cc1)[C@@H](O)c1ccoc1` (racemic) showed a melting point of 134 to 135 °C.

In turn, `CCOc1ccc(C2=NNC(=O)CC2)c(OCC)c1` displayed a melting point of 148 to 150 °C.

Regarding `CCOC(=O)c1csc(NC(=O)c2cc(OC)c(OC)cc2O)n1`, the melting point is 218 to 220 °C.

Consider `O=S(Cc1cn(C23CC4CC(CC(C4)C2)C3)nn1)c1cc(Cl)ccc1Cl` (configuration not stated), for which the melting point was 125 to 128 °C.

Consider `CCCCCCS(=O)(=O)c1c(Br)cc(N)cc1Br`, for which the melting point lay within 192 to 194 °C.

`CCCCCCCCC(=O)NCc1ccc(Oc2ccccc2[N+](=O)[O-])c(OC)c1` displayed a melting point of 93 to 93.5 °C.

`Cc1c(-c2ccc(Cl)c(Cl)c2)n(-c2ccccc2)c(-c2ccccc2)cc1=O` displayed a melting point of 188 to 191 °C.

With `CC1(C)OC(=O)Nc2ccc(-c3ccccc3Cl)cc21`, the melting point was 181 to 182 °C.

On to `CNc1ncnc2c1c(=O)n(C)c(=O)n2C`, for which the melting point was 178 to 179 °C.

In turn, `C#CC(C)(C)Oc1ccc2ncccc2c1` came in with a melting point of 65 to 67 °C.

Take `COc1cc2oc(=O)c3c(c2cc1OC)CCN(CCN1CC2CCCC(C2)C1)C3`: the melting point lay within 122 to 125 °C.

In the case of `Cc1cc(Br)cc(C(=O)c2[nH]c(=O)[nH]c(=O)c2C(C)C)c1`, the melting point lay in the range of 266 to 267 °C.

Take `FC(F)(F)C1(c2cc(Cl)cc(Cl)c2)CC(c2cnc(Cl)c(Cl)c2)=NO1` (configuration not stated): the melting point was in the range of 155 to 157 °C.

As to `CC(C)(C)OC(=O)/C=C1/CCCCC1n1nc(-c2c(-c3ccccc3)nn3ccccc23)ccc1=O` (configuration not stated), the melting point lay in the range of 110 to 116 °C.

The compound `CC(=O)OCCOc1ccc2oc3cc(-c4nnn[nH]4)ccc3c(=O)c2c1` showed a melting point of 216 to 218 °C.

`NS(=O)(=O)c1ccc(-n2nc(C(F)(F)F)cc2-c2nc3cccc(F)c3s2)cc1` yielded a melting point of 251 to 253 °C.

Compound `Cn1c(=O)cc(-c2ccccc2)c2cc(C(COCc3ccc(Cl)cc3)(c3ccc(Cl)cc3)n3ccnc3)ccc21` (configuration not stated) yielded a melting point of 177 °C.

With `CC(=S)OCc1ccc([N+](=O)[O-])cc1`, the melting point is 55.5 to 57.5 °C.

`COCCNC(=O)c1c(O)c2ccccc2n(C)c1=N` yielded a melting point of 208 to 210 °C.

`CN(C)CCN(C)c1ccc2nnc(-c3cnc([N+](=O)[O-])n3C)n2n1`: the melting point was 196 to 198 °C.

Consider `O=C(O)c1cc(=O)c2c(O)cccc2[nH]1`, for which the melting point lay within 298 to 301 °C.

As for `CCOCc1nc2c(N)nc(C)c(C)c2n1CCCNC(C)=O`, the melting point was 162 °C.

`COC(=O)C1C(=O)CC2CCC1N2C` (mixture of isomers) showed a melting point of 104 to 107 °C.

`OC(c1ccc(Cl)cc1)c1ccc(-n2ccnc2)nc1` (configuration not stated) registered a melting point of 147 to 149 °C.

Turning to `Cc1c(N2CCN(C(C)C)CC2)nn2c(-c3ccnnc3)c(-c3ccc(F)cc3)nc2c1C`, the melting point fell in the range of 222 to 224 °C.

Regarding `O=c1cc(C(F)(F)F)[nH]c(=O)n1-c1cc(O)c(Cl)cc1F`, the melting point is 68 to 72 °C.

`CC(C)c1[nH]nc2c1C(=O)c1c(NC(=O)NN3CCN(C)CC3)cccc1-2` registered a melting point of 231 to 233 °C.

For `NC1(CO)CCCNC1=O` (configuration not stated), the melting point came to 145 °C.

Compound `CC(O)Cc1cccc(Nc2nccc(-c3sc(N)nc3-c3ccccc3)n2)c1` (configuration not stated) came in with a melting point of 219 to 220 °C.

The compound `CCn1ncc2c(-c3cncc(C)c3)c(C(=O)NCc3ccc(OC)cc3)c(-c3ccccc3)nc21` had a melting point of 203 to 204 °C.

Take `NC(=O)c1c(-c2cccc(F)c2)c(Cl)n2c1CNCC2`: the melting point lay in the range of 226 to 228 °C.

For `CC(=O)c1c(C)c(C#N)c2nc(C3CC3)oc2c1N1CC[C@H](N(C)C)C1`, the melting point was determined as 142 °C.
